The source of these data is patent US20240307545A1, “CONJUGATE OF SAPONIN, OLIGONUCLEOTIDE AND GALNAC” (priority 2021, published 2024).

The nature of series [1]: Endosomal escape enhancing activity of saponin. The following applies: compared with SO1861.
For series [2], the system named is apoB. In words: apoB gene silencing in Huh7 cells (qPCR). Type of series: cell-based, human. The following applies: hepatocytes with very low ASGPR1 expression (Huh7). (In qPCR the cycle at which signal appears reflects the starting amount.)
Experimental: Primary hepatocytes which highly express ASGPR1 (ASGPR1^high) and Huh7 hepatocyte cell line (low ASGPR1 expression) were treated with a concentration range of trivalent-GalNAc-ApoBBNA (TrivalentGalNAc-ApoBBNA), either in absence or presence of 300 nM trivalent-GalNAc-SO1861 (TrivalentGalNAc-SPT001) (FIGS. 20A and B).
In addition, the primary hepatocytes and the liver cells of cell line Huh7 were contacted with a concentration series of a saponin-oligonucleotide-ASGPR ligand conjugate, i.e. trivalent GalNAc conjugated with both SO1861 (DAR is 4, in a dendron with four SO1861 molecules) and ApoB BNA (SEQ ID NO: 2) ((GalNAc)3-dSPT4-ApoB (FIG. 20E), or TrivalentGalNAc-ApoBBNA-dendron(SO1861)4), and apoB mRNA expression was assessed (FIGS. 20A and B).
ApoB gene silencing in HepG2 (ASGPR1+) cells or Huh7 (ASGPR1^+/−) was determined.
RNA from cells was isolated and analysed according to standard protocols (Biorad). qPCR primers that were used are indicated in Table A2.
RNA from cells was isolated using TRI Reagent® Solution (Thermo Scientific) according to the manufacturer's instruction. Conversion into cDNA was performed using iScript™ cDNA Synthesis Kit (BioRad) using standard protocols. […]
The subject of series [3] is apoB. The series is described as follows: apoB mRNA expression in primary human hepatocytes (qPCR). Type of series: cell-based. The following applies: for IC50: primary human hepatocytes, read-out: IC50 apoB RNA levels. As to the method: (§1) Cryopreserved primary human hepatocytes (Cytes Biotechnologies S.L., Spain) were thawed in hepatocyte thawing media (Cytes Biotechnologies S.L., Spain). […] Cells were pre-cultured for 4-6 hrs at 37° C. allowing for cell attachment to cell culture plates before the start of treatment. Plating medium was replaced by 315 μl or 108 μl maintenance media (Cytes Biotechnologies S.L., Spain), after which conjugates were added from a 10× concentrated stock solution in PBS. Plates were incubated for 72 hr at 37° C. being harvested for gene expression and cell viability analysis.
as §1

Series [4] is described as follows: In vivo tolerability (clinical observations, body weight) in C57BL/6J mice. As to conditions: Study A; doses and regimens of Table A5, i.v. As to the method:
(§2) • i. Dose administration and in-life phase. Per group, 8 C57BL/6J male mice for treatment groups (in Study A, 14 mice in vehicle control group), approximately 6-7 weeks at arrival and 8-9 weeks at dosing, were dosed. The compounds, formulated in PBS or PBS alone (vehicle) according to Table A5 and Table A6, were dosed at 5 ml/kg in the tail vain (intravenously, i.v.), with dose volumes corresponding to the individual bodyweights. Where applicable, trivalent (GalNAc)3-SO1861 (EMCH) was co-administered at 5 ml/kg in the tail vain (i.v.) right after the trivalent GalNAc-ApoB conjugate. Animals were weighed weekly and clinical observations were performed 2-3 times daily within the first 48 hrs, and at least once daily thereafter until study end. • ii. Sampling of serum, liver, and kidney tissue. […] At the relevant inter-study post-dose timepoints, 3 animals per timepoint per treatment group (6 animals in the vehicle control group in Study A) were sacrificed to collect terminal bleeds and collect relevant organs, such as liver and kidney tissues for further analyses. at end of study, the remaining 2 animals (4 in the control group in Study A) per group were sacrificed. One half of the liver and one kidney was frozen and used for tissue RNA analysis.

Series [5] has as its system apoB. The series is described as follows: ApoB expression analysis in liver tissue of C57BL/6J mice (qRT-PCR). Type of series: in vivo. The following applies: for reduction of apoB RNA levels (gene expression) in liver compared to vehicle / reduction of apoB expression in liver compared to vehicle: Study A; for reduction of apoB RNA levels (gene expression) in liver compared to vehicle: 24 hrs. As to the method: as §2
The mRNA was isolated from frozen liver tissue using TRIzol® Reagent (Thermo Scientific) according to the manufacturer's instruction. Conversion into cDNA was performed using iScript™ cDNA Synthesis Kit (BioRad). ApoB expression levels and levels of specific liver housekeeping genes were determined using quantitative real-time PCR assays (qRT-PCR) using iTaq™ Universal SYBR® Green Supermix (BioRad) and the Light Cycler 480 (Roche Diagnostics, Rotkreuz, Switzerland) with specific DNA primers, listed in Table A4 (Study A) and Table A7 (Study B), respectively. Analysis was done by the ΔCt method to determine apoB expression relative to 2 liver-specific housekeeping control mRNAs. Each analysis reaction was performed in triplicate.

For another series, the system named is LDL-cholesterol. The series is described as follows: Serum LDL-cholesterol (LDL-C) analysis in C57BL/6J mice. Type of series: in vivo. How it is done: as §2
LDL-cholesterol was measured in mouse serum, using an LDL-cholesterol specific two-step AU480 assay kit, respectively, from Beckman Coulter, with a photometric measurement according to the manufacturer's instructions.

Read-outs that look alike come from different tables or passages of the source. [BNANC] = BNA^NC bridged nucleic acid nucleotide; {ThiolC6} = thiol C6 linker; d = 2'-deoxy (DNA)

As for `CC(=O)OC1C(C)OC(OC2C(C)OC(OC(=O)[C@]34CCC(C)(C)CC3C3=CCC5[C@@]6(C)CC[C@H](OC7OC(C(=O)O)C(O)C(OC8OCC(O)C(O)C8O)C7OC7OC(CO)C(O)C(O)C7O)[C@@](C)(C=O)C6CC[C@@]5(C)[C@]3(C)C[C@H]4O)C(OC3OC(C)C(OC4OCC(O)C(OC5OCC(O)C(O)C5O)C4O)C(O)C3O)C2O)C(O)C1OC1OCC(O)C(O)C1O` (some centres unmarked) [SO1832], in series [1], the “endosomal escape enhancing activity towards an oligonucleotide (or protein toxin) in the endosome” value is “about equally active as SO1861”.

On to “(GalNAc)3-dSPT4-ApoB: trivalent GalNAc conjugated with a dendron with four SO1861 moieties and ApoB BNA (SEQ ID NO: 2) via trifunctional linker (GCCTCAGTCTGCTTCGCACC; BNA oligo conjugated to trivalent GalNAc and dendron of four SO1861 saponins, further chemistry not given here)”, for which, in the series with apoB [2] (low nM, conjugate alone), the “response: apoB mRNA silencing” value is on record as “not responsive”. Moreover, the “apoB gene (mRNA) silencing potency, factor higher than the GalNAc-ApoB BNA conjugate lacking covalently linked saponin” value in the series on apoB [3] (primary hepatocytes, concentration series) was around 100.

As a reminder, the IC50 is the concentration at which inhibition is half-maximal. With “ApoB#02 BNA: BNA^NC antisense oligonucleotide 5′-GCattggtatTCA-3′ [SEQ ID NO: 12], fully phosphorothioated, 5′-Thiol C6 linker (GCATTGGTATTCA; sugars from the 5' end [BNANC]2 d8 [BNANC]3, all phosphorothioate, 5' {ThiolC6}, methylation of C not given here)”, in series [4], the “tolerability (adverse findings, clinical observations)” value was “well tolerated”. Moreover, the “reduction of apoB RNA levels (gene expression) in liver compared to vehicle” value was “not noticeably reduced” in the series with apoB [5] (0.1 mg/kg i.v.), around 15% with apoB [5] (1 mg/kg i.v.) and around 21% with apoB [5] (2 mg/kg i.v.). The “reduction of apoB expression in liver compared to vehicle” value in the series on apoB [5] (2 mg/kg, 72 hrs) worked out at 39%; with apoB [5] (2 mg/kg, 336 hrs) it was 30%. In the series on apoB [5] (Study B, 2 mg/kg, 72 hrs), the “apoB RNA levels (gene expression) in liver, % of vehicle control” value is 53%. The “reduction of serum LDL-C compared to vehicle” value in the series with LDL-cholesterol (Study A, 2 mg/kg, 72 hrs) was around 50%; in the series with LDL-cholesterol (Study A, 2 mg/kg, 336 hrs), around 40%. Besides, in the series on LDL-cholesterol (Study A, 0.1, 1, or 2 mg/kg, 24 hrs), the “serum LDL-C levels compared to vehicle (in words)” value is listed as “not noticeably reduced”. The “serum LDL-C level” value with LDL-cholesterol (Study B, 2 mg/kg, 72 hrs post-dose) worked out at 2 mg/dL. Further, the IC50 in the series with apoB [3] (relative ApoB#02 BNA concentration, without transfection agent) was found to be 400 nM; with apoB [3] (transfection with RNAi-MAX) it was 8 nM.

In the case of “TrivalentGalNAc-ApoBBNA: conjugate of trivalent GalNAc and the ApoB antisense BNA oligonucleotide ApoBBNA (SEQ ID NO: 2); L or S linker not stated (GCCTCAGTCTGCTTCGCACC; BNA oligonucleotide conjugated to trivalent GalNAc, pattern not explicitly stated, further chemistry not given here)”, the “response: apoB mRNA silencing” value with apoB [2] (low nM + trivalentGalNAc-SPT001) is “not responsive”.
